From paper PMC12605013, “SAG1.3-derived Frizzled-targeting small-molecule compounds” (The Journal of Biological Chemistry, 2025)

Key:
HiBiT-FZD5 = molecular target: T1, HiBiT-FZD5 (Homo sapiens, UniProt Q13467); test: NanoBiT cell surface expression assay, HiBiT-FZD5; type: cell-based; details: 10 μM, overnight exposure
T1 construct: expressed in transfected cells; host or cells: HEK293A cells
Protocol: Subsequently, 10 μl of either compound 11 or 26 (DD436001) was added at a final concentration of 10 μM. DMSO was added separately as a control. One day after compound or DMSO addition, cells were washed once with HBSS, and 90 μl of HBSS was added to the wells. To measure cell surface expression, a 1:20 dilution of furimazine live cell substrate and 1:20 LgBiT mix (final dilution = 1:200) were prepared in HBSS and 10 μl was added. The plate was incubated for 30 min to allow for HiBiT–LgBiT complementation, and then luminescence was measured on a TECAN Spark multimode microplate reader between 460 and 500 nm (integration time: 200 ms).
Figure S4. BRET time-course of compound 11 at the FZD5-DEP-Clamp in agonist mode and HiBiT-FZD5/6 surface expression upon compound exposure. (A) Shown is the BRET time-course recorded upon addition of 30 µM compound 11 or vehicle (DMSO). Experiments were performed in HEK293A cells stably expressing the FZD5-DEP-Clamp sensor. […] The timepoint of ligand addition is indicated by a black arrow. (B, C) Impact of compound 11 on FZD cell surface expression. The cell surface pool of transiently-transfected HiBiT-FZD5 (B) and HiBiT-FZD6 (C) was assessed by addition of recombinant LgBiT in combination with detection of NanoBiT luminescence. […]

[1] = molecular target: T2, muscarinic acetylcholine M1 receptor (Homo sapiens, UniProt P11229); test: BRET-based Venus-mGsq recruitment assay at M1R-Nluc; type: cell-based
T2 construct: HA (N); expressed in transfected cells; host or cells: HEK293A cells
T2 sequence (P11229 2-460): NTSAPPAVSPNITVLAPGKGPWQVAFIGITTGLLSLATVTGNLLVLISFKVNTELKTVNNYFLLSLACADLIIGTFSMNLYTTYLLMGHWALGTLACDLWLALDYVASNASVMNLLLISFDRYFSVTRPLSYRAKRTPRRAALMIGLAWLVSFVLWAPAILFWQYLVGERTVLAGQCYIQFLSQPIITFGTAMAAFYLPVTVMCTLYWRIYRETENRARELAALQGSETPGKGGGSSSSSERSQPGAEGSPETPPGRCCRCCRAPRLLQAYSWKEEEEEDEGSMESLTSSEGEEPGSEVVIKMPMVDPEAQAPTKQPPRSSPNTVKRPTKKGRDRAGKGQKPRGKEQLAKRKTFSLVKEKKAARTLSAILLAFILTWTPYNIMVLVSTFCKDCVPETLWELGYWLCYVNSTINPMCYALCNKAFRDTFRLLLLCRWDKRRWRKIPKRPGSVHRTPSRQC
Protocol: The transfected cells were seeded at a density of 40,000 cells per well into a white opaque 96-well plate. […] Following a 10 min incubation period in the dark, the measurement was started on a TECAN Spark multimode microplate reader, prewarmed to 37 °C. After the three baseline measurements, the ligands diluted in HBSS were added (10 μl) and the measurement continued for a further 15 min. Nluc bioluminescence was detected between 460 and 500 nm. The emission of Venus was detected between 520 and 560 nm.
Figure S3. […] Experiments were performed in HEK293 cells.

[2] = tested on: LGR5 gene expression in primary human hepatocyte (PHH) spheroids; test: WNT-3A-induced LGR5 gene expression in primary human hepatocyte spheroids; type: cell-based; details: 10 μM compound, 48 h, coaddition with WNT-3A
Protocol: Cryopreserved adult PHHs were purchased from BioIVT and cultured as 3D spheroids as previously described ([35]). Briefly, PHHs were seeded in 96-well ultra-low attachment plates (Corning) at a density of 1500 cells/well in William’s E medium (Gibco) supplemented with insulin, transferrin, and selenium (Life Technologies), 100 nM dexamethasone (Sigma), and 10% fetal bovine serum (Cytiva). PHHs were treated from the start of the culture with vehicle control (dimethyl sulfoxide [DMSO]), recombinant WNT-3A, and 10 μM compound 11 for 48 h, as indicated. […]
RNA from 24 hepatocyte spheroids per condition was isolated using Qiazol lysis reagent (QIAGEN). For expression profiling of target genes by quantitative PCR, complementary DNA synthesis was carried out using SuperScript III reverse transcriptase (Invitrogen), and expression was evaluated using Taqman probes (Table S6) according to the supplier’s instructions in a 7500 Fast Real-Time PCR system (Applied Biosystems). Gene expression was quantified using the ΔΔCt method (normalized to the average of the vehicle control from all three experiments).
For the WNT target gene analysis in PHH-derived spheroids, ΔΔCt values were calculated by normalization to the averaged vehicle control from three independent experiments.

[3] = tested on: HiBiT-FZD4, HiBiT-FZD7 or HiBiT-FZD8; test: TOPFlash reporter gene assay, test for paralog selectivity; details: 10 µM compound; 300 ng/mL WNT-3A
Protocol: The transfected cell suspension was then seeded (45,000 cells/well) into a PDL-coated, white opaque 96-well plate. One day after transfection, cells were washed once with HBSS, and 80 μl of serum-free DMEM containing 10 nM of the porcupine inhibitor C59 were added. […] All ligands/vehicle controls were diluted in serum-free DMEM containing 10 nM C59. One day after ligand stimulation, cells were washed once with HBSS, and the lysis was started using 1× Passive Lysis Buffer (Promega; catalog no.: E1910, 20 μl/well), after which the plate was shaken for 20 min at room temperature. Fluc and Rluc bioluminescence were then assessed using the Dual-Luciferase Assay System (Promega; catalog no.: E1910, 20 μl of both LARII [Luciferase Assay II reagent] and 1× Stop-and-Glo Reagent). Measurements were performed using a TECAN Spark multimode microplate reader.
For reporter gene assays, the TOPFlash ratio was defined as the ratio of β-catenin-dependent gene transcription (Fluc) over a constitutively expressed transfection control (Rluc). For all experiments, the calculated TOPFlash ratios were normalized to the respective vehicle conditions.
Experiments were performed in ΔFZD1-10 HEK293T cells transiently transfected with HiBiT-FZD4 (A), HiBiT-FZD7 (B) or HiBiT-FZD8 (C). Data represent mean values ± SEM from three independent experiments performed in triplicate. […]

T1 sequence (Q13467 27-585): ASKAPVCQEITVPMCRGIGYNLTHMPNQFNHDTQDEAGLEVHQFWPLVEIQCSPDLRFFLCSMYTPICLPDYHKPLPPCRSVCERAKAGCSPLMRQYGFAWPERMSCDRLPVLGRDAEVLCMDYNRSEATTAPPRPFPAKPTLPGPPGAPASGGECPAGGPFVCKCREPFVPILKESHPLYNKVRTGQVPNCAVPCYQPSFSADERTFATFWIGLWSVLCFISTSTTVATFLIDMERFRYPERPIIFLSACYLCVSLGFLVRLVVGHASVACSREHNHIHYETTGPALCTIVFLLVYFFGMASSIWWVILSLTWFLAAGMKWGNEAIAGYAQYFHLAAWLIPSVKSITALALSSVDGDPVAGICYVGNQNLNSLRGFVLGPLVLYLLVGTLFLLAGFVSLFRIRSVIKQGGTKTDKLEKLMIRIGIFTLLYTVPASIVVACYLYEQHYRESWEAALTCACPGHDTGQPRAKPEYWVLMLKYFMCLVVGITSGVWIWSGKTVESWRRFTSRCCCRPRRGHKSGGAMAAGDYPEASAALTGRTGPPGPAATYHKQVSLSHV

Compound: CC(=O)Nc1cccc(C(=O)NC2CCC(N(Cc3cccc(-c4ccncc4)c3)C(=O)c3sc4ccccc4c3Cl)CC2)c1 (centres unmarked) [compound 11, N-((1r,4r)-4-(3-Acetamidobenzamido)cyclohexyl)-3-chloro-N-(3-(pyridin-4-yl)benzyl)benzo[b]thiophene-2-carboxamide]
- Effect on surface levels of HiBiT-FZD5 (HiBiT-FZD5): had no effect
- Effect on carbachol-induced M1-mediated mini-Gsq response ([1]; 10 µM compound +/- carbachol): nor affected the concentration-dependent M1-mediated mini-Gsq response
- mini-Gsq recruitment, compound alone (agonist mode) ([1]; increasing concentrations of compound): neither elicited a mini-Gsq recruitment on its own
- Effect on WNT-3A-induced LGR5 mRNA expression [2]: returning mRNA expression almost back to vehicle levels
- Subtype preference in TOPFlash assays [3]: did not show a subtype preference
